Results from ChEMBL document CHEMBL5126530, “Building on endogenous lipid mediators to design synthetic receptor ligands” (Eur J Med Chem, 2022).

What was measured:
Assay type in all cases: functional, cell-based
[1] = target: T1, Prostaglandin D2 receptor (Homo sapiens, UniProt Q13258); test: Agonist activity at human DP1 expressed in human 1321N1 cells assessed as increase in cAMP level incubated for 20 mins measured after 60 mins addition of cAMP detect reagent by HTRF analysis
T1 sequence (Q13258 whole entry): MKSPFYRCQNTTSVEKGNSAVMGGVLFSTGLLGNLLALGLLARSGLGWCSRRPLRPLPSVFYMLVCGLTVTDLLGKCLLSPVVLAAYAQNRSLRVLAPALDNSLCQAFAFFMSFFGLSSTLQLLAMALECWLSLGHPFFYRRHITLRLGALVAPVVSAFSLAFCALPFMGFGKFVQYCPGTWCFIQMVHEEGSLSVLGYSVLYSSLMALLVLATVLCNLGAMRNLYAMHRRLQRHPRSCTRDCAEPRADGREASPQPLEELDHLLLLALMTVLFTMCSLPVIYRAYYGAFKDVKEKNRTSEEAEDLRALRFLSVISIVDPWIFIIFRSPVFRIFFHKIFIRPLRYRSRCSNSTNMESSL

[2] = target: T2, Prostaglandin E2 receptor EP1 subtype (Homo sapiens, UniProt P34995); test: Agonist activity at human EP1 expressed in HEK293 cells assessed as increase in cAMP level incubated for 20 mins measured after 60 mins addition of cAMP detect reagent by HTRF analysis
T2 sequence (P34995 whole entry): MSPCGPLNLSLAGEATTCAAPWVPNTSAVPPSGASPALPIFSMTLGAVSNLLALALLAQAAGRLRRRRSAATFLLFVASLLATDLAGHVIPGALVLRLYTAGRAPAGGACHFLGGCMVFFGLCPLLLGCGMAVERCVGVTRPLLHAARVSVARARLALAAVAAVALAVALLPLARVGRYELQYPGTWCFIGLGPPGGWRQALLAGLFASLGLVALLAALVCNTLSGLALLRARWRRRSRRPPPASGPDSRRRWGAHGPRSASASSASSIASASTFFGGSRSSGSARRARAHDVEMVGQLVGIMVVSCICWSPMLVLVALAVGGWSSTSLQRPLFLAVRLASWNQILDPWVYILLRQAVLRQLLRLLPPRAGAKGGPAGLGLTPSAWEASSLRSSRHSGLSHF

[3] = target: Prostaglandin E2 receptor EP2 subtype (Homo sapiens, UniProt P43116); test: Agonist activity at human EP2 expressed in HEK293 cells assessed as increase in cAMP level incubated for 20 mins measured after 60 mins addition of cAMP detect reagent by HTRF analysis
[4] = target: Prostacyclin receptor (Homo sapiens, UniProt P43119); test: Agonist activity at human IP expressed in HEK293 cells assessed as increase in cAMP level incubated for 20 mins measured after 60 mins addition of cAMP detect reagent by HTRF analysis
Sequence of Prostacyclin receptor (P43119 whole entry): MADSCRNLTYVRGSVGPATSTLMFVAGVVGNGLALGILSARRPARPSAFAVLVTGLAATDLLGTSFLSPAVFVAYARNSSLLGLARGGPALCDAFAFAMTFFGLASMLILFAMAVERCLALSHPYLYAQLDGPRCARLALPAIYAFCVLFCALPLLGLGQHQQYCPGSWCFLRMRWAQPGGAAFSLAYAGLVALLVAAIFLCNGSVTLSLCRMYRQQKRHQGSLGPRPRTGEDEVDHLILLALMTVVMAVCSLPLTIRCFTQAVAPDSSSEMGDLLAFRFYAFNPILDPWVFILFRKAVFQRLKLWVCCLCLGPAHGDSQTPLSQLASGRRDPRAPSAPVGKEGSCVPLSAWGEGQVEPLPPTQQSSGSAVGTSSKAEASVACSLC

Sequence of Prostaglandin E2 receptor EP2 subtype (P43116 whole entry): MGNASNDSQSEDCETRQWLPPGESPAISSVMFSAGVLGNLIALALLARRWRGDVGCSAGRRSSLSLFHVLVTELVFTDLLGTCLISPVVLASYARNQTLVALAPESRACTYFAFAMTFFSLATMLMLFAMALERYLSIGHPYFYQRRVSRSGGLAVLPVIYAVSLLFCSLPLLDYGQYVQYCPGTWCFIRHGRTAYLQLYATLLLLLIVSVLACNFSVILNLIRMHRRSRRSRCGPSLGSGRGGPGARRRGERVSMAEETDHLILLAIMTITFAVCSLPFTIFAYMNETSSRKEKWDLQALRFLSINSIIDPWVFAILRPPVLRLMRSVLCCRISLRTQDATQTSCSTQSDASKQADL

EC50 [1] | EC50 [2] | EC50 [3] | EC50 [4] | Compound
2060 nM | 0.3 nM | 2090 nM | – | CC#CCC(C)[C@H](O)/C=C/[C@@H]1[C@H]2C/C(=C/CCCC(=O)O)C[C@H]2C[C@H]1O (some centres not stated) [ILOPROST]
0.6 nM | 285 nM | 6.2 nM | 1.9 nM | CCCCC[C@H](O)CC[C@@H]1[C@H]2Cc3cccc(OCC(=O)O)c3C[C@H]2C[C@H]1O [TREPROSTINIL]
